The target of assay [1] is mTOR (human recombinant aa mTOR 1360-2549) (Homo sapiens (Human), UniProt P42345). The assay is described as follows: mTOR enzymatic test by TR-FRET (phosphorylation of GFP-4EBP1). It counts as biochemical. Here is the method:
Model 1: mTOR Enzymatic Test by TR-FRET (Time-resolved Fluorescence Resonance Energy Transfer).
The test detects the phosphorylation of the substrate GFP-4EBP1 using a terbium-labelled antibody that is specific for the phospho-Thr46 epitope. Binding of the Tb-antibody to the phosphorylated GFP peptide allows the transfer of energy from Tb, excited at 340 nm, to GFP with an increase in the fluorescence emission of the GFP at 520 nm. […] The mixture is incubated for 30 minutes at room temperature. 10 μl of solution are taken up and the reaction is quenched by adding 10 μl of Tb-antibody solution (Invitrogen PV4757)/EDTA (2 nM Tb-Ac and 10 mM EDTA final). After 60 minutes at room temperature, the fluorescence at 490 nm, from the Tb emission, and at 520 nm, from the GFP emission, is measured in a BMG PHERAstar reader equipped with a Lanthascreen™ filter (excitation at 340 nm, emission at 490 and 520 nm). The results are given in the form of the 520/490 ratio.

The target of assay [2] is PI3Kα (p110α/p85α) (Homo sapiens (Human), UniProt P42336). Put plainly: PI3Kα enzymatic test by measuring the consumption of ATP. It counts as biochemical. On the procedure: Model 2: PI3Kα Enzymatic Test by Measuring the Consumption of ATP.
Chain of PI3Kα (p110α/p85α) (P42336 whole entry): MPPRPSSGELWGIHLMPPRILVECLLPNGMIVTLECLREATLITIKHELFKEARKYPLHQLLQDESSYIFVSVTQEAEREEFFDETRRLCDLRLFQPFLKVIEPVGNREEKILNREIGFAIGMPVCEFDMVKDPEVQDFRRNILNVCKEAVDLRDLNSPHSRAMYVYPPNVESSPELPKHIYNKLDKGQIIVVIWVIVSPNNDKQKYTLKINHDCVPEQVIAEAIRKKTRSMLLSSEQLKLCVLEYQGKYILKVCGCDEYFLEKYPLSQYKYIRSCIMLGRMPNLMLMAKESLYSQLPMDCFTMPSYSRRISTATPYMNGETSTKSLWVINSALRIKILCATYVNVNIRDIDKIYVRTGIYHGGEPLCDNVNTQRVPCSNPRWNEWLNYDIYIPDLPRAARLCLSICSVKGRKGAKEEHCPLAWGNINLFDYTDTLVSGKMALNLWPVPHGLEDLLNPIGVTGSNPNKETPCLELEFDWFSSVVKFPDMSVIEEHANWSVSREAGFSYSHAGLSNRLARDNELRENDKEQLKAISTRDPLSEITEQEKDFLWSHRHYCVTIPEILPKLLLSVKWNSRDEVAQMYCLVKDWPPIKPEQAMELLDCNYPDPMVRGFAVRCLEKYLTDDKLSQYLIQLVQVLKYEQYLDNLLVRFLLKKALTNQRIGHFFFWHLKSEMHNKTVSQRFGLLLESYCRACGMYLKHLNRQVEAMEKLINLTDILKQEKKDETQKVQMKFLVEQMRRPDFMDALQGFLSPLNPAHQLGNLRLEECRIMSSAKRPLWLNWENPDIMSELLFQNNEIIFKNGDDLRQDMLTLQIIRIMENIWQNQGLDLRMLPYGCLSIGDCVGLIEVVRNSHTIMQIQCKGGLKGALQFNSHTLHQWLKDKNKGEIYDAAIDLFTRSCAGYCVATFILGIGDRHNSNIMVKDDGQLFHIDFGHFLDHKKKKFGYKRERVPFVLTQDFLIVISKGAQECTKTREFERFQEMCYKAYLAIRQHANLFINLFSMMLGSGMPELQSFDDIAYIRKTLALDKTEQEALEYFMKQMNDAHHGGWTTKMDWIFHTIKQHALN
Chain of PI3Kα (p110α/p85α) (P27986 whole entry partner): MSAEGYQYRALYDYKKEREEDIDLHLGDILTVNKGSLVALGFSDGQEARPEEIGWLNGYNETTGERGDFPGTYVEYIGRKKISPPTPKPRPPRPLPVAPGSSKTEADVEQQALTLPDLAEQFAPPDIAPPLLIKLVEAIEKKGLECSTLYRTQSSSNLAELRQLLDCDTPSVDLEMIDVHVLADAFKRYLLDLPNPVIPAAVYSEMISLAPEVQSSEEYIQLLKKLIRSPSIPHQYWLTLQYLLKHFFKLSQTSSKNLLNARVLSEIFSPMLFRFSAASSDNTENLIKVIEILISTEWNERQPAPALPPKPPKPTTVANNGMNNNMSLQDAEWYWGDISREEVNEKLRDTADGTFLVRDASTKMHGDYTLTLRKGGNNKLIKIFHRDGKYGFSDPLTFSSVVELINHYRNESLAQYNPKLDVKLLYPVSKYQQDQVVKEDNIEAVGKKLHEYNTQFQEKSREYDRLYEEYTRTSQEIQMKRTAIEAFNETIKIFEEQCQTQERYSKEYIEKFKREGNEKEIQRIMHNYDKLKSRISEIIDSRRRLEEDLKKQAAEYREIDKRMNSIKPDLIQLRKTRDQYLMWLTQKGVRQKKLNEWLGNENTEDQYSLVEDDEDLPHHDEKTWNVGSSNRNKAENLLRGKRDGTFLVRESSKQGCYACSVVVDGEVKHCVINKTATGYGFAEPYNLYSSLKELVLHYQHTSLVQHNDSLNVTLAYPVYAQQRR
The test uses a lucifeurerin/luciferase system to measure the concentration of ATP and its consumption during the enzymatic reaction. The test is performed in 96-well format (Corning/Costar 96 black flat-bottomed half-wells plate, ref. 3694) in a total volume of 30 μl.
To 1 μl of inhibitor in 100% DMSO are added (final concentrations) 50 μM of the substrate PIP2 ((L-α-phosphatidyl-D-myoinositol 4,5-bisphosphate, Echelon 117P-4516-0500), 2 μM of ATP and 1.7 μg/ml of PI3Kα, (p110α/p85α, Invitrogen PV4788) in a buffer of Tris/HCl 50 mM pH 7.5, EGTA 1 mM, MgCl2 10 mM, Chaps 0.03%, 1 mM DTT). After 90 minutes, the reaction is quenched by adding 20 μl/well of KinaseGlo reagent (Promega V6713). After 10 minutes in the dark, the luminescence is read on the PHERAStar microplate reader (reading at 0.8 sec/well).
The IC50 values are determined by the preparation of successive threefold dilutions on at least a scale of 10 000.

Assay [3] relates to U87MG tumour cells. The assay is described as follows: Test of in vitro proliferation of U87MG tumour cells. It counts as cell-based. The conditions noted are these: Homo sapiens, U-87 MG, 72 h, U87MG cells, 72 hours; read-out: U87 Cell Proliferation IC50. Here is the method:
Model 4: Test of in vitro Proliferation of U87MG Tumour Cells.
The cell growth is determined with the reagent CellTiter 96 AQueous One Solution Cell Proliferation Assay from Promega (Cat. No. G3581).

Where only a bound is given, the exact number is not on record here.

Chain of mTOR (human recombinant aa mTOR 1360-2549) (P42345 1360-2549): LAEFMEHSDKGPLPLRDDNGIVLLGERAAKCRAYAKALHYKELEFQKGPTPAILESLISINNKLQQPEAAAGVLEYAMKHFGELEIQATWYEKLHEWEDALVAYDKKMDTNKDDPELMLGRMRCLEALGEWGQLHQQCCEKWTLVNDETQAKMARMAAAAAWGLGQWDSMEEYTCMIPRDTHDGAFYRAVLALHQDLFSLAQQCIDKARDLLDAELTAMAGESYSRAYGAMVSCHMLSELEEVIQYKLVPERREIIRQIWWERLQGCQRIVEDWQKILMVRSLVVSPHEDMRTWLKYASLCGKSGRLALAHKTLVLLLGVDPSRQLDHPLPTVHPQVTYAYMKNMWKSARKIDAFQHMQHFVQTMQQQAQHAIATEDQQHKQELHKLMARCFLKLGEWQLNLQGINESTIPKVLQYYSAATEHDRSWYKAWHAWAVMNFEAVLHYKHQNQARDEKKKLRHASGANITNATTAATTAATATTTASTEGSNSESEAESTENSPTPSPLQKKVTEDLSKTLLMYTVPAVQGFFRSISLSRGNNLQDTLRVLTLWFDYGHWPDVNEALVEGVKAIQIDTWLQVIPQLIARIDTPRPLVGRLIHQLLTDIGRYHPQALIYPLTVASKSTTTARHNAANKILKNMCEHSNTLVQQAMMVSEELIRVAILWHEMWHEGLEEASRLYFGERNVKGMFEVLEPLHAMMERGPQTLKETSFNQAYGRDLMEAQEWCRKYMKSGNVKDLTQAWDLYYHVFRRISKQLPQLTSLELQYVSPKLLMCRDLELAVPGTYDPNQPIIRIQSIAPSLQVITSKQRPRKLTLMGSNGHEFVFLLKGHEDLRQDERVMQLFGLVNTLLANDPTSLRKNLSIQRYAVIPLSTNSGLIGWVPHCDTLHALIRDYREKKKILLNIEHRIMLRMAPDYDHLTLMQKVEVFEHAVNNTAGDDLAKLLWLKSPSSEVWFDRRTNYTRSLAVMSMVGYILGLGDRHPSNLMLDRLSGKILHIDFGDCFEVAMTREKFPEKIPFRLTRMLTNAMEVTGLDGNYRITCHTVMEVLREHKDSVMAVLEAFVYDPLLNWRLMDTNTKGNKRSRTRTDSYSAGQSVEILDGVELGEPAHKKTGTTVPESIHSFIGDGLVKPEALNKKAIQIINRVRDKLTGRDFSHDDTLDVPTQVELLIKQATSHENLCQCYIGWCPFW

For the compound `CCNC(=O)Nc1ccc(-c2nc(N3CC4CCC(C3)O4)nc3c2C(=O)N(C[C@@H]2CCCN2C(=O)OCC)CC(C)(C)O3)cc1F` [Example 5, (S)-2-[4-[4-(3-ethylureido)-3-fluorophenyl]-8,8-dimethyl-2-(8-oxa-3-azabicyclo[3.2.1]oct-3-yl)-5-oxo-7,8-dihydro-5H-9-oxa-1,3,6-triazabenzocyclohepten-6-ylmethyl]pyrrolidine-1-carboxylic acid ethyl ester], the IC50 was 0.905 µM in assay [1] and over 10 µM in assay [3]. Besides, the “PI3Ka IC50” value in assay [2] is over 10 µM.

For the compound `CCNC(=O)Nc1ccc(-c2nc(N3CC4CCC(C3)O4)nc3c2C(=O)N(C[C@@H]2CCCN2C(C)=O)CC(C)(C)O3)cc1F` [Example 6, 1-{4-[6-((S)-1-acetylpyrrolidin-2-ylmethyl)-8,8-dimethyl-2-(8-oxa-3-azabicyclo[3.2.1]oct-3-yl)-5-oxo-5,6,7,8-tetrahydro-9-oxa-1,3,6-triazabenzocyclohepten-4-yl]-2-fluorophenyl}-3-ethylurea], the results for the IC50 in assay [1] and in assay [3] were 1.07 µM and 7.15 µM, respectively. Moreover, the “PI3Ka IC50” value in assay [2] is over 10 µM.

On to `CCNC(=O)Nc1ccc(-c2nc(N3CC4CCC(C3)O4)nc3c2C(=O)N(CCCO)CC(C)(C)O3)cc1` [Example 9, 1-ethyl-3-{4-[6-(3-hydroxypropyl)-8,8-dimethyl-2-(8-oxa-3-azabicyclo[3.2.1]oct-3-yl)-5-oxo-5,6,7,8-tetrahydro-9-oxa-1,3,6-triazabenzocyclohepten-4-yl]phenyl}urea], for which the IC50 was 0.065 µM in assay [1] and 2.5 µM in assay [3]. Also, the “PI3Ka IC50” value in assay [2] was over 10 µM.

Take `CCNC(=O)Nc1ccc(-c2nc(N3CC4CCC(C3)O4)nc3c2C(=O)N(CC)CC(C)(C)O3)cn1` [Example 17, 1-ethyl-3-{5-[6-ethyl-8,8-dimethyl-2-(8-oxa-3-azabicyclo[3.2.1]oct-3-yl)-5-oxo-5,6,7,8-tetrahydro-9-oxa-1,3,6-triazabenzocyclohepten-4-yl]pyridin-2-yl}urea]: the IC50 is 2.49 µM in assay [1] and over 10 µM in assay [3]. Besides, the “PI3Ka IC50” value in assay [2] was over 10 µM.

In the case of `CC1(C)CNC(=O)c2c(nc(N3CCOCC3)nc2-c2ccc(N)nc2)O1` [Example 95, 4-(6-Aminopyridin-3-yl)-8,8-dimethyl-2-morpholin-4-yl-7,8-dihydro-6H-9-oxa-1,3,6-triazabenzocyclohepten-5-one], the IC50 in assay [1] was 0.624 µM. For the same compound, the “PI3Ka IC50” value in assay [2] was over 10 µM.

As for `CCNC(=O)Nc1ccc(-c2nc(N3CCOCC3)nc3c2C(=O)N(CC)CCO3)cc1` [Example 97, 1-Ethyl-3-[4-(6-ethyl-2-morpholin-4-yl-5-oxo-5,6,7,8-tetrahydro-9-oxa-1,3,6-triazabenzocyclohepten-4-yl)phenyl]urea], the IC50 in assay [1] is 0.8 µM; in assay [3], over 10 µM. In addition, in assay [2], the “PI3Ka IC50” value stood at 2.159 µM.

For the compound `CCN1CC(C)(C)Oc2nc(N3CCOCC3)nc(-c3ccc(OC)c(CO)c3)c2C1=O` [Example 100, 6-Ethyl-4-(3-hydroxymethyl-4-methoxyphenyl)-8,8-dimethyl-2-morpholin-4-yl-7,8-dihydro-6H-9-oxa-1,3,6-triazabenzocyclohepten-5-one], the IC50 in assay [1] was 7.29 µM; in assay [3] it was over 10 µM. In assay [2], the “PI3Ka IC50” value turned out to be 7.44 µM.

With `CCN1CC(C)(C)Oc2nc(N3CC4CCC(C3)O4)nc(-c3ccc(OC)c(CO)c3)c2C1=O` [Example 101, 6-Ethyl-4-(3-hydroxymethyl-4-methoxyphenyl)-8,8-dimethyl-2-(8-oxa-3-azabicyclo[3.2.1]oct-3-yl)-7,8-dihydro-6H-9-oxa-1,3,6-triazabenzocyclohepten-5-one], the values for the IC50 in assay [1] and in assay [3] were 4.04 µM and over 10 µM, respectively.

On to `CCN1CC(C)(C)Oc2nc(N3CCOCC3)nc(-c3ccc(N)cc3)c2C1=O` [Example 102, 4-(4-Aminophenyl)-6-ethyl-8,8-dimethyl-2-morpholin-4-yl-7,8-dihydro-6H-9-oxa-1,3,6-triazabenzocyclohepten-5-one], for which the IC50 in assay [1] turned out to be 0.927 µM; in assay [3], 9.83 µM. Besides, the “PI3Ka IC50” value in assay [2] was found to be 3.61 µM.

For `CCN1CC(C)(C)Oc2nc(N3CCOCC3)nc(-c3ccc(NC(=O)NOC)cc3)c2C1=O` [Example 104, 1-Methoxy-3-[4-(6-ethyl-8,8-dimethyl-2-morpholin-4-yl-5-oxo-5,6,7,8-tetrahydro-9-oxa-1,3,6-triazabenzocyclohepten-4-yl)phenyl]urea], the IC50 in assay [1] was 1.49 µM; in assay [3], over 10 µM. In addition, the “PI3Ka IC50” value in assay [2] is 3.75 µM.

On to `CCN1CC(C)(C)Oc2nc(N3CC4CCC(C3)O4)nc(-c3ccc(N)nc3)c2C1=O` [Example 107, 4-(6-Aminopyridin-3-yl)-6-ethyl-8,8-dimethyl-2-(8-oxa-3-azabicyclo[3.2.1]oct-3-yl)-7,8-dihydro-6H-9-oxa-1,3,6-triazabenzocyclohepten-5-one], for which the IC50 in assay [1] is 2.65 µM; in assay [3] it was over 10 µM. For the same compound, the “PI3Ka IC50” value in assay [2] stood at 9.38 µM.

As to `CCC(=O)Nc1ccc(-c2nc(N3CC4CCC(C3)O4)nc3c2C(=O)N(CC)CC(C)(C)O3)cc1` [Example 108, N-{4-[6-Ethyl-8,8-dimethyl-2-(8-oxa-3-azabicyclo[3.2.1]oct-3-yl)-5-oxo-5,6,7,8-tetrahydro-9-oxa-1,3,6-triazabenzocyclohepten-4-yl]phenyl}propionamide], the figures for the IC50 in assay [1] and in assay [3] were 0.472 µM and 4.45 µM, respectively. For the same compound, the “PI3Ka IC50” value in assay [2] was over 10 µM.

As for `CCNC(=O)Nc1ccc(-c2nc(N3C[C@@H](C)O[C@@H](C)C3)nc3c2C(=O)N(CC)CC(C)(C)CO3)cc1` [Example 109, 1-{4-[2-((2S,6R)-2,6-Dimethylmorpholin-4-yl)-6-ethyl-8,8-dimethyl-5-oxo-6,7,8,9-tetrahydro-5H-10-oxa-1,3,6-triazabenzocycloocten-4-yl]phenyl}-3-ethylurea], the IC50 in assay [1] was 7.77 µM. Also, the “PI3Ka IC50” value in assay [2] worked out at 2.046 µM.

Consider `CCN1CC(C)(C)Oc2nc(N3CC4CCC(C3)O4)nc(-c3ccc(NS(=O)(=O)CC)cc3)c2C1=O` [Example 111, Ethanesulfonic acid {4-[6-ethyl-8,8-dimethyl-2-(8-oxa-3-azabicyclo[3.2.1]oct-3-yl)-5-oxo-5,6,7,8-tetrahydro-9-oxa-1,3,6-triazabenzocyclohepten-4-yl]phenyl}amide], for which the IC50 in assay [1] was 6.35 µM. Besides, the “PI3Ka IC50” value in assay [2] is over 10 µM.

Consider `CCNC(=O)Nc1ccc(-c2nc(N3CC4CCC(C3)O4)nc3c2CN(CC)CC(C)(C)O3)cc1` [Example 113, 1-Ethyl-3-{4-[6-ethyl-8,8-dimethyl-2-(8-oxa-3-azabicyclo[3.2.1]oct-3-yl)-5,6,7,8-tetrahydro-9-oxa-1,3,6-triazabenzocyclohepten-4-yl]phenyl}urea], for which the IC50 is 3.96 µM in assay [1] and over 10 µM in assay [3]. Moreover, the “PI3Ka IC50” value in assay [2] was over 10 µM.

Consider `CCNC(=O)Nc1ccc(-c2nc(N3C[C@@H](C)O[C@@H](C)C3)nc3c2C(=O)N(CC)CC(C)(C)O3)cc1` [Example 114, 1-{4-[2-((2S,6R)-2,6-Dimethylmorpholin-4-yl)-6-ethyl-8,8-dimethyl-5-oxo-5,6,7,8-tetrahydro-9-oxa-1,3,6-triazabenzocyclohepten-4-yl]phenyl}-3-ethylurea], for which the IC50 in assay [1] was 1.22 µM; in assay [3] it was over 10 µM. For the same compound, in assay [2], the “PI3Ka IC50” value is over 10 µM.

Consider `CCN1CC(C)(C)Oc2nc(N3CC4CCC(C3)O4)nc(-c3ccc(NC(=O)NC(C)(C)CO)c(F)c3)c2C1=O` [Example 224, 1-{4-[6-Ethyl-8,8-dimethyl-2-(8-oxa-3-azabicyclo[3.2.1]oct-3-yl)-5-oxo-5,6,7,8-tetrahydro-9-oxa-1,3,6-triazabenzocyclohepten-4-yl]-2-fluorophenyl}-3-(2-hydroxy-1,1-dimethylethyl)urea], for which the IC50 in assay [1] was 1.12 µM. In addition, the “PI3Ka IC50” value in assay [2] is over 10 µM.

Consider `COCCN1CC(C)(C)Oc2nc(N3CCOC[C@@H]3C)nc(-c3ccc(NC(=O)NCC(C)(C)O)c(F)c3)c2C1=O` [Example 226, 1-{2-Fluoro-4-[6-(2-methoxyethyl)-8,8-dimethyl-2-((S)-3-methylmorpholin-4-yl)-5-oxo-5,6,7,8-tetrahydro-9-oxa-1,3,6-triazabenzocyclohepten-4-yl]phenyl}-3-(2-hydroxy-2-methylpropyl)urea], for which the IC50 in assay [1] worked out at 1.28 µM. Further, in assay [2], the “PI3Ka IC50” value is over 10 µM.

Source of the values: US9120812B2, “Pyrimidooxazocine derivatives as mTOR-inhibitors” (SANOFI, priority 2012, dated 2015).
